Consider one compound from patent US9127016B2, “Small molecule inhibitors of Dusp6 and uses therefor” (University of Pittsburgh—Of the Commonwealth System of …, priority 2009, dated 2015).

The subject of assay [1] is cardiac progenitors / heart size. In words: Cardiac progenitor and heart size analysis in treated embryos. Type of assay: in vivo, zebrafish. The procedure: In situ hybridization experiments were carried out as described previously (Kudoh, T. et al. Genome Res 11, 1979-87 (2001)). The probes eng3, krox20, sef, dusp6, gata4, nkx2.5, cmlc2, vmhc, scl, etsrp and hand2 were generated with a RNA labeling kit (Roche) (Tsang, M. et al. Development 131, 2769-79 (2004); Chen, J. N. et al. Development 122, 3809-16 (1996); Ekker, M., et al. Development 116, 1001-10 (1992); Liao, E. C. et al. Genes Dev 12, 621-6 (1998); Oxtoby, E. et al. Nucleic Acids Res 21, 1087-95 (1993); Pham, V. N. et al. Dev Biol 303, 772-83 (2007); Tsang, M., et al. Nat Cell Biol 4, 165-9 (2002); Yelon, D., et al. Dev Biol 214, 23-37 (1999); and Yelon, D. et al. Development 127, 2573-82 (2000)). The double fluorescent in situ hybridization protocol was described by Schoenbeck et al. (Dev Cell 13, 254-67 (2007)). Fluorescent in situ hybridizations were visualized by confocal microscopy. Single optical sections and z-series of flat-mounted stained embryos were collected with a confocal laser scan head (SP5, Leica Microsystems, Inc.) mounted on an inverted compound microscope (DM16000, Leica Microsystems, Inc.). Images were scanned and compiled with NIH ImageJ software (rsb.info.nih.gov/ij/).
The identification of a small molecule that blocks the biologically relevant activity of Dusp6 and Dusp1 allowed us to probe the requirement for these enzymes in later developmental processes. Given that BCI could potentially block related members of the Dusp family, we examined the expression of other dusps in zebrafish. Detailed expression analyses of several dusps have been described and include dusp4, dusp1, dusp7, dusp5, and dusp22a (Qian, F. et al. Dev Dyn 233, 1163-72 (2005); Sumanas, S., et al. Blood 106, 534-41 (2005); Brown, J. L. et al. Proc Natl Acad Sci USA 105, 12337-42 (2008); Kudoh, T. et al. Genome Res 11, 1979-87 (2001); and Thisse, B. et al. Fast Release Clones: A High Throughput Expression Analysis. ZFIN Direct Data Submission (zfin.org) (2004)). Of these only Dusp6 functions as a feedback regulator of FGF/MAPK/ERK signaling and is expressed within the anterior lateral plate mesoderm, supporting the idea that this phosphatase plays a role in heart development. In early embryogenesis, Dusp6 is an important regulator of FGF signaling; knock-down with antisense morpholinos results in embryo polarity defects, which precludes the study of Dusp6′s role in later development (Tsang, M. et al. Development 131, 2769-79 (2004)). In contrast, small molecules permit the analysis at later stages of development due to rapid and transient perturbation of their biological targets. Using BCI as a chemical probe, we asked how inhibiting Dusp6 activity would alter patterning and formation of the heart. The zebrafish heart develops from a small group of cardiac progenitor cells that can be identified by 5 hpf within the mesodermal layer of the blastula stage embryo. During gastrulation, cardiac progenitor cells undergo cellular migration to form two bilateral populations known as the anterior lateral plate mesoderm (ALPM) located just behind the MHB, and begin to express the transcription factors nkx2.5 and gata4. Studies have described a role for Fgf8 in zebrafish heart development. In embryos harboring an fgf8 mutation, both atria and ventricular cells are reduced (Marques, S. R., et al. Dev Biol 321, 397-406 (2008) and Reifers, F., et al. Development 127, 225-35 (2000)). In agreement with the notion that FGF signaling plays a role in stipulating heart size, ectopic expression of a constitutively activated FGF receptor (Fgfrl) during somitogenesis stages expanded cardiac tissue (Marques, S. R., et al. Dev Biol 321, 397-406 (2008)). Therefore we used BCI to test if Dusp6 limits FGF signaling and restricts cardiac progenitors and heart organ size. In BCI-treated embryos a caudal expansion of gata4 in the ALPM was observed (compare FIG. 14a & a′ to 14b & b′; 81%, n=16). […]

Assay [2] has as its target T1, Dusp6 (Homo sapiens, UniProt Q16828).
T1 sequence (Q16828 1-381): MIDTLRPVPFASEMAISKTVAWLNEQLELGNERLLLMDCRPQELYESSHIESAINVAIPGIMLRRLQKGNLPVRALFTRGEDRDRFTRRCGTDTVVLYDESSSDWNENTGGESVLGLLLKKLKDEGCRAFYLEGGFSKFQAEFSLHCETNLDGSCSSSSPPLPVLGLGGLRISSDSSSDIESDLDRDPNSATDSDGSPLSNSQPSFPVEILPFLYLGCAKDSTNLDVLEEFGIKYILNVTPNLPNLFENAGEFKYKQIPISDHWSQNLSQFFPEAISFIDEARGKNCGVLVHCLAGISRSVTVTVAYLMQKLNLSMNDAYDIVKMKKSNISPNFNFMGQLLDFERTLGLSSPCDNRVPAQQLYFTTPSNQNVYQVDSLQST
In words: Basal Dusp6 dephosphorylation of OMFP. Type of assay: biochemical. Details: His; made in house. To be noted: 100 μM. The procedure: For OMFP based ERK2 induced activation of Dusp6, recombinant His-tagged Dusp6 was expressed from a bacterial expression vector and 250 ng were incubated with the indicated concentrations of NSC95397 or BCI. OMFP was added at its apparent Km (100 μM) (Vogt, A. et al. J Biol Chem 280, 19078-86 (2005)). The final reaction volume was 15 μl. After 1 h at RT, OMF fluorescence was measured on an M5 multimode reader (Molecular Devices) at excitation/emission wavelengths of 485/525 nm. To assay activated Dusp6, 210 ng or 2.1 μg of recombinant ERK2 (Cell signaling) were added to Dusp6(210 ng)/BCI(100 μM) mixtures to measure activation at 1:1 and 1:10 ratio of substrate to enzyme. OMFP was immediately added and fluorescence (ex485/em525 nm) was read every 10 min for 130 min. Fold activation was calculated at 60 mins in each experiment.

With `O=C1/C(=C/c2ccccc2)C(NC2CCCCC2)c2ccccc21` (stereo not shown) [Compound 3, (E)-2-benzylidene-3-(cyclohexylamino)-2,3-dihydro-1H-inden-1-one], the “embryos with expansion of cardiac hand2 expression” value in assay [1] (10-somite stage, n=19) is given as 32%. Besides, in assay [1] (18-somite stage, n=16), the “embryos with increase in cmlc2 positive cells” value amounted to 81%. The “embryos with expanded nkx2.5 cardiac progenitor pools” value in assay [1] (n=11) was determined as 91%. The “embryos with caudal expansion of gata4 in the ALPM” value in assay [1] (n=16, 10-somite stage) is 81%. In assay [1] (treated at 40% epiboly, washout next day, 56 hpf), the “cardiac tissue in larvae” value is recorded as “marked expansion in cardiac tissue”. Besides, in assay [1] (treated from the 1-somite stage, n=15), the “embryos with marked reduction in scl expression” value was 93%. In addition, in assay [2], the “inhibition of basal Dusp6 activity toward OMFP” value is “did not inhibit basal Dusp6 activity”.
